What was measured:
[1] = system: L-929 cells; assay: Gene transfer efficiency (GFP-expressing cells/viable cell number, Cytell) after plasma introduction with inhibitor treatment; format: cell-based, mouse; settings: for gene introduction rate: concentration of inhibitor changed, normalized to control without inhibitor = 1 (FIGS. 8 to 11)
Description: (§1) Mouse fibroblast L-929 cells were seeded on a 96-well plate and were cultured for 24 h in CO2 incubator. A culture medium was removed by aspiration, and 100 μL of nocodazole (inhibitor) free-culture medium, 1 μM nocodazole-containing culture medium, or 100 μM nocodazole-containing culture medium was added to each well. The cells were cultured for 30 min in CO2 incubator. Next, the culture medium was removed by aspiration, and 6.0 μg/6.0 μL of pAcGFP1-N1 plasmid (selected molecule) solution was added dropwise to each well. The 96-well plate was set in plasma irradiation equipment and irradiated with plasma. Then, 100 μL of culture medium was immediately added, and the plate was returned to CO2 incubator and the cells were cultured for 24 h. The cells after the culturing were observed under a microscope.
A selected molecule was introduced in the same manner as in Example 1, except the point that in the inhibitor treatment step using 1 μM nocodazole, the treatment time was changed from 1 min to 120 min. […] The dashed line denotes the level in the case without adding nocodazole (control, left panel). The gene transfer efficiency (%) was calculated, using a Cytell (Cytell Cell Imaging System, manufactured by GE Healthcare, Inc.), as (the number of GFP-expressing cells/viable cell number).
A selected molecule was introduced in the same manner as in Example 1, except the point that the cells were treated with 5 μM or 15 μM chloroquine diphosphate and the plasma irradiation time was changed.
A selected molecule was introduced in the same manner as in Example 1, except the point that the concentration of nocodazole was changed, to determine cell viability and gene transfer efficiency. The plasma irradiation conditions were at a frequency of 20 kHz, a voltage of 15 kVpp, and an inter-electrode distance of 1 mm and for an irradiation time of 1 msec.
Cell viability and gene transfer efficiency were determined in the same manner as in Example 4, except the point that chloroquine was used as the inhibitor.
Cell viability and gene transfer efficiency were determined in the same manner as in Example 4, except the point that LY-294002 was used as the inhibitor.
Cell viability and gene transfer efficiency were determined in the same manner as in Example 4, except the point that wortmannin was used as the inhibitor.

[2] = system: L-929 cells; assay: GFP-expressing plasmid introduction by plasma irradiation after inhibitor treatment, microscope observation; format: cell-based, mouse; settings: 1 μM or 100 μM nocodazole, 30 min before plasma irradiation; compared to the case without nocodazole treatment (FIGS. 2 to 4)
Description: as §1
In Example 1, the plasma irradiation conditions were at a frequency of 20 kHz, a voltage of 15 kVpp, and an inter-electrode distance of 1 mm and for an irradiation time of 1 msec or 5 msec.

[3] = system: MDCK cells; assay: GFP plasmid introduction by plasma with nocodazole treatment after plasma irradiation, microscope observation; format: cell-based, canine; settings: 1.0 μM or 0.1 μM nocodazole for 30 min after plasma irradiation; vs without nocodazole treatment (FIG. 13)
Description: (§2) By using cells (canine renal epithelial cell MDCK cells or human osteosarcoma cell MG63 cells) different from those in Example 1, gene transfer efficiency was examined when nocodazole treatment was performed after plasma irradiation. Specifically, the following protocol was used to conduct an experiment.
(§3) Canine renal epithelial cell MDCK cells or human osteosarcoma cell MG63 cells were each seeded on a 96-well plate and cultured for 24 h in CO2 incubator. The culture medium was removed by aspiration, and 6.0 μg/6.0 μL of pAcGFP1-N1 plasmid (selected molecule) solution was added dropwise to each well. The 96-well plate was set in plasma irradiation equipment and was irradiated with plasma. Then, 100 μL of nocodazole (inhibitor)-free culture medium, 1 μM nocodazole-containing culture medium, or 0.1 μM nocodazole-containing culture medium was added to each well. The cells were cultured for 30 min in CO2 incubator. After that, the culture medium was removed by aspiration and 100 μL of culture medium was added immediately. The plate was returned to CO2 incubator, and the cells were cultured for 24 h. The cells after the culturing were observed under a microscope. The plasma irradiation conditions were the same as in Example 1.

[4] = system: L-929 cells; assay: PCR quantification of remaining plasmid gene at 24 h after introduction; format: cell-based, mouse; settings: 1 μM nocodazole, from Cq values (FIG. 15)
Description: A selected molecule was introduced into mouse fibroblast L-929 cells in the same procedure as in Example 1. The resulting cells were cultured for 24 h. […] The cultured cells were collected from eight wells, and a High Pure PCR Template Preparation Kit (manufactured by Roche, Inc.) was used to recover and purify DNA. Next, 50 ng of the purified DNA was added to a PCR reaction kit SYBR Green I (Fast Start Essential DNA Green Master, manufactured by Roche, Inc.). Each resulting mixture was subjected to 40 cycles of amplification using a PCR machine (LightCycler 96 system, manufactured by Roche, Inc.). […] Each Cq value refers to a value determined by calculating a cycle number after amplification of gene sequence of interest has started and before a quantitative increase (linear increase) is initiated. The cycle number indicated by each arrow in FIG. 15(B) refers to the Cq value. When many copies of the gene sequence of interest are contained, there is a rapid increase in amplification and the Cq value is small. In addition, the inverse number of Cq value is proportional to the initial amount of the gene sequence of interest.

[5] = system: MG63 cells; assay: GFP plasmid introduction by plasma with nocodazole treatment before irradiation, microscope observation; format: cell-based, human; settings: 1.0 μM or 0.1 μM nocodazole before plasma irradiation; vs without nocodazole treatment (FIG. 12)
Description: as §1
An experiment was conducted in the same manner as in Experiment 1, except that cells (human osteosarcoma cells, MG63 cells) different from those in Example 1 were used. The concentration of nocodazole was 1 μM or 0.1 μM.

[6] = system: MG63 cells; assay: GFP plasmid introduction by plasma with nocodazole treatment after plasma irradiation, microscope observation; format: cell-based, human; settings: 1.0 μM or 0.1 μM nocodazole for 30 min after plasma irradiation; vs without nocodazole treatment (FIG. 14)
Description: as §2, §3

`O=c1cc(N2CCOCC2)oc2c(-c3ccccc3)cccc12` [LY-294002, 2-(4-morpholinyl)-8-phenyl-4H-1-benzopyran-4-one] was tested, and the gene introduction rate ([1]; plasma irradiation 1 msec) was “significantly increased”.

With `CCN(CC)CCCC(C)Nc1ccnc2cc(Cl)ccc12` (stereo not drawn) [chloroquine] the gene transfer efficiency ([1]; chloroquine 5 μM or 15 μM, plasma irradiation time 1 msec to 10 msec, vs cells without chloroquine treatment (std) (FIG. 7(B))) was “increased” and the gene introduction rate ([1]; plasma irradiation 1 msec) was “significantly increased”.

With `COC(=O)Nc1nc2ccc(C(=O)c3cccs3)cc2[nH]1` [nocodazole] the “number of GFP-expressing cells” value [2] was “increased”, the “number of GFP-expressing cells” value [3] was “increase” and the “amount of exogenous gene DNA remaining in cells relative to cells without nocodazole treatment” value [4] was “about 1.44 times”. The “number of GFP-expressing cells” value [5] was “increased”, the gene transfer efficiency ([1]; 1 μM nocodazole, treatment time 1 min to 120 min, plasma irradiation time 1 msec, vs without nocodazole (FIG. 6(B))) was “marked increase” and the gene transfer efficiency ([1]; 1 μM nocodazole, treatment time 1 min to 120 min, plasma irradiation time 5 msec, vs cells without nocodazole (FIG. 5(B))) was “markedly increased”. The gene introduction rate ([1]; plasma irradiation 1 msec) was “significantly increased” and the “number of GFP-expressing cells” value [6] was “increase”.

`COC[C@H]1OC(=O)c2coc3c2[C@@]1(C)C1=C(C3=O)[C@@H]2CCC(=O)[C@@]2(C)C[C@H]1OC(C)=O` [wortmannin] was tested, and the “inhibitor concentration at which the gene transfer efficiency was further markedly increased” value ([1]; plasma irradiation 1 msec, 30 min inhibitor treatment (FIGS. 8 to 11)) was at most 0.01 µM.

— US11898155B2, “Method for introducing molecule and composition containing inhibitor” (Pearl Kogyo Co., Ltd., priority 2017, dated 2024)
